The record followed here is US20060058320A1, “[1,2,4] Triazolo[1,5-c]pyrimidine derivatives” (KYOWA HAKKO KOGYO CO., LTD., priority 2002, published 2006).

For the assay, the system named is CGS 21680-induced catalepsy. The assay is described as follows: Activity on CGS 21680-induced catalepsy. In kind it is in vivo, mice. Particulars: for inhibition in vivo at 10 mg/kg: Mus musculus, po, read-out: Remission ratio (%); for Total score: total catalepsy score of 10 mice (maximum 50 points; 40 points or less = positive), one hour after administration; for Number of animals showing remission: cases with catalepsy score of 4 points or less in 10 cases. As to the method: Parkinson's disease is a motor disorder based on degeneration and cell death of the nigrostriatal dopaminergic neurons. When CGS 21680 (adenosine A2A receptor agonist) is administered into the intracerebral ventricle, the inhibitory synaptic transmission of GABA in the medium sized spiny neurons in the corpus striatum is inhibited directly via the adenosine A2A receptor [Journal of Neuroscience, vol. 16, p. 605 (1996)]. Accordingly, it is concidered that the adenosine A2A receptor agonists positively regulate the output of the GABAergic neurons from the corpus striatum to the globus pallidus lateralis, and, as a result, catalepsy is induced by the administration of CGS 21680.
The test was carried out using ten 5-week age male ddY mice (22-25 g in body weight, Japan SLC) per group. CGS 21680 (produced by RBI Co) was dissolved in physiological saline (produced by Otsuka Pharmaceutical Co., Ltd.), and 10 μg/20 μL of the solution was injected into mouse intracerebral ventricle. Each test compound was used by suspending it in distilled water containing 0.3% of polyoxylene (20) sorbitan monooleate (referred to as “Tween 80” hereinafter) (produced by Otsuka Pharmaceutical Co., Ltd.). The suspension containing each test compound or a solution containing no test Compound (distilled water containing 0.3% of Tween 80; used as a control) was orally administered (0.1 mL per 10 g of mouse body weight) 30 minutes before the injection of CGS 21680 into the intracerebral ventricle. One hour after the administration of the each test compound, only forelimbs or only hindlimbs of each mouse were laid on a vertically arranged stand made of acryl and having a size of 4.5 cm in height and 1.0 cm in width to measure catalepsy symptoms. All of the test compounds were administered orally in a dose of 10 mg/kg.
The criteria of the catalepsy score are shown below.
The effect was decided by a total catalepsy score of 10 mice in one group (the maximum score: 50 points). When the total score was 40 points or less, the activity of the compounds was decided positive. The number of the animals showing remission of catalepsy was expressed by the number of cases showing a catalepsy score of 4 points or less in 10 cases. The catalepsy remission ratio was expressed as the percentage of the total score in the test compound-administered group to the total score in the control group.

Where [1] appears, read: from total score of test group and control group, 10 mg/kg orally.

Where a name gives a salt, the structure may show the parent alone. Read-outs that look alike come from different tables or passages of the source.

Turning to `CC(C)(O)c1ccc(-c2cc3nc(-c4ccco4)nn3c(N)n2)cc1` [Compound 63, 5-Amino-2-(2-furyl)-7-[4-(1-hydroxy-1-methylethyl)phenyl]-[1,2,4]triazolo[1,5-c]pyrimidine], the inhibition in vivo at 10 mg/kg under setting [1] is 98%. The same compound displayed a Total score (10 mg/kg orally) of 1.

For `CCN(Cc1ccncc1)C(=O)c1cc2nc(-c3ccco3)nn2c(N)n1` [Compound 102, 5-Amino-2-(2-furyl)[1,2,4]triazolo[1,5-c]pyrimidine-7-carboxylic acid [N-ethyl-N-(4-pyridylmethyl)]amide], the inhibition in vivo at 10 mg/kg under setting [1] is 92%. The compound further gave a Total score (10 mg/kg orally) of 4.

Take `Nc1nc(-c2ccc(CO)cn2)cc2nc(-c3ccco3)nn12` [Compound 62, 5-Amino-2-(2-furyl)-7-(3-hydroxymethylpyridin-6-yl)[1,2,4]-triazolo[1,5-c]pyrimidine]: the inhibition in vivo at 10 mg/kg under setting [1] was 80%. Under “10 mg/kg orally”, the Total score turned out to be 10.

Consider `Nc1nc(C(=O)NCCCN2CCCC2=O)cc2nc(-c3ccco3)nn12` [Compound 92], for which, under setting [1], the inhibition in vivo at 10 mg/kg was determined as 82%. In addition, the Total score (10 mg/kg orally) worked out at 9.

On to `COC[C@H]1CCCN1C(=O)c1cc2nc(-c3ccco3)nn2c(N)n1` [Compound 149, (2R)-(2-Methoxymethyl)pyrrolidinyl 5-amino-2-(2-furyl)-7-[1,2,4]triazolo[1,5-c]pyrimidin-7-yl ketone], for which, for the setting “10 mg/kg orally”, the “Number of animals showing remission” value amounted to 7 and the Total score stood at 15. Also, the “Remission ratio (%)” value under setting [1] stood at 70%.

As for `COCCN(C)C(=O)c1cc2nc(-c3ccco3)nn2c(N)n1` [Compound 87, 5-Amino-2-(2-furyl)[1,2,4]triazolo[1,5-c]pyrimidine-7-carboxylic acid [N-(2-methoxyethyl)-N-methyl]amide], the inhibition in vivo at 10 mg/kg under setting [1] was determined as 82%. Moreover, under “10 mg/kg orally”, the Total score was found to be 9.

For `Nc1nc(C(=O)N2CCC(O)(Cc3ccccc3)CC2)cc2nc(-c3ccco3)nn12` [Compound 162, 5-Amino-2-(2-furyl)[1,2,4]triazolo[1,5-c]pyrimidin-7-yl 4-benzyl-4-hydroxypiperidino ketone], the inhibition in vivo at 10 mg/kg under setting [1] amounted to 72%. The same compound showed a Total score (10 mg/kg orally) of 13.

With `Nc1nc(CO)cc2nc(-c3ccco3)nn12` [Compound 22, 5-Amino-2-(2-furyl)-7-hydroxymethyl[1,2,4]triazolo[1,5-c]-pyrimidine], the inhibition in vivo at 10 mg/kg under setting [1] was 84%. The same compound registered a Total score (10 mg/kg orally) of 8.

As to `COc1ccc(CN(C)C(=O)c2cc3nc(-c4ccco4)nn3c(N)n2)cc1OC` [Compound 81, 5-Amino-2-(2-furyl)[1,2,4]triazolo[1,5-c]pyrimidine-7-carboxylic acid [N-(3,4-dimethoxybenzyl)-N-methyl]amide], under setting [1], the inhibition in vivo at 10 mg/kg is 96%. The Total score (10 mg/kg orally) was determined as 2.

`CCOC1(c2cc3nc(-c4ccco4)nn3c(N)n2)CC1` [Compound 26, 5-Amino-7-(1-ethoxycyclopropyl)-2-(2-furyl)[1,2,4]triazolo [1,5-c]pyrimidine]: the inhibition in vivo at 10 mg/kg under setting [1] turned out to be 82%. Under “10 mg/kg orally”, the Total score stood at 9.

Take `COC1CCN(C(=O)c2cc3nc(-c4ccco4)nn3c(N)n2)CC1` [Compound 144, 5-Amino-2-(2-furyl)[1,2,4]triazolo[1,5-c]pyrimidin-7-yl 4-methoxypiperidino ketone]: the inhibition in vivo at 10 mg/kg under setting [1] came out at 84%. The Total score (10 mg/kg orally) was 7.

As to `Nc1nc(C(=O)N2CCC(O)(c3ccccc3)CC2)cc2nc(-c3ccco3)nn12` [Compound 150, 5-Amino-2-(2-furyl)[1,2,4]triazolo[1,5-c]pyrimidin-7-yl (4-hydroxy-4-phenyl)piperidino ketone], where the note is “10 mg/kg orally”, the “Number of animals showing remission” value was 8 and the Total score stood at 11. Also, the “Remission ratio (%)” value under setting [1] stood at 76%.

Consider `Nc1nc(C(=O)N2CCC(Cc3ccccc3)CC2)cc2nc(-c3ccco3)nn12` [Compound 158, 5-Amino-2-(2-furyl)[1,2,4]triazolo[1,5-c]pyrimidin-7-yl 4-benzylpiperidino ketone], for which the inhibition in vivo at 10 mg/kg was 86%. The compound also showed a Total score (10 mg/kg orally) of 7.

With `CN(Cc1cccnc1)C(=O)c1cc2nc(-c3ccco3)nn2c(N)n1` [Compound 105, 5-Amino-2-(2-furyl)[1,2,4]triazolo[1,5-c]pyrimidine-7-carboxylic acid [N-methyl-N-(3-pyridylmethyl)]amide], the inhibition in vivo at 10 mg/kg under setting [1] came out at 82%. For the same compound, the Total score (10 mg/kg orally) amounted to 9.

As for `CN(Cc1ccc(F)cc1)C(=O)c1cc2nc(-c3ccco3)nn2c(N)n1` [Compound 121, 5-Amino-2-(2-furyl)[1,2,4]triazolo[1,5-c]pyrimidine-7-carboxylic acid [N-(4-fluorobenzyl)-N-methyl]amide monohydrochloride], the inhibition in vivo at 10 mg/kg under setting [1] amounted to 72%. This compound also yielded a Total score (10 mg/kg orally) of 14.

In the case of `CC(C)N(Cc1ccccc1)C(=O)c1cc2nc(-c3ccco3)nn2c(N)n1` [Compound 100, 5-Amino-2-(2-furyl)[1,2,4]triazolo[1,5-c]pyrimidine-7-carboxylic acid (N-benzyl-N-isopropyl)amide], for the setting “10 mg/kg orally”, the “Number of animals showing remission” value came out at 8 and the Total score was 15. Under setting [1], the “Remission ratio (%)” value came out at 64%.

On to `CC(C)(O)c1ccccc1OCc1cc2nc(-c3ccco3)nn2c(N)n1` [Compound 29, 5-Amino-7-[2-(1-hydroxy-1-methylethyl)phenoxymethyl]-2-(2-furyl)[1,2,4]triazolo[1,5-c]pyrimidine], for which the inhibition in vivo at 10 mg/kg under setting [1] came out at 88%. This compound came in with a Total score (10 mg/kg orally) of 6.

With `CCN(Cc1cccnc1Cl)C(=O)c1cc2nc(-c3ccco3)nn2c(N)n1` [Compound 129, 5-Amino-2-(2-furyl)[1,2,4]triazolo[1,5-c]pyrimidine-7-carboxylic acid [N-ethyl-N-(2-chloropyridin-3-ylmethyl)]-amide], the inhibition in vivo at 10 mg/kg under setting [1] turned out to be 90%. The same compound displayed a Total score (10 mg/kg orally) of 5.

In the case of `COCCNC(=O)c1cc2nc(-c3ccco3)nn2c(N)n1` [Compound 86, 5-Amino-2-(2-furyl)[1,2,4]triazolo[1,5-c]pyrimidine-7-carboxylic acid (2-methoxyethyl)amide], under setting [1], the inhibition in vivo at 10 mg/kg was 100%. Further, the Total score (10 mg/kg orally) came out at 0.

Regarding `Nc1nc(C(=O)NCc2ccccc2)cc2nc(-c3ccco3)nn12` [Compound 91, 5-Amino-2-(2-furyl)[1,2,4]triazolo[1,5-c]pyrimidine-7-carboxylic acid benzylamide], the inhibition in vivo at 10 mg/kg under setting [1] was determined as 94%. For the same compound, where the note is “10 mg/kg orally”, the Total score came to 3.

Take `Nc1nc(-c2cc[nH]n2)cc2nc(-c3ccco3)nn12` [Compound 60, 5-Amino-2-(2-furyl)-7-(1H-pyrazol-3-yl)[1,2,4]triazolo[1,5-c]pyrimidine]: the inhibition in vivo at 10 mg/kg under setting [1] was 98%. In addition, the Total score (10 mg/kg orally) turned out to be 1.

For the compound `Nc1nc(C2=CCN(CCO)CC2)cc2nc(-c3ccco3)nn12` [Compound 75, 5-Amino-2-(2-furyl)-7-[1-(2-hydroxyethyl)-1,2,3,6-tetra-hydropyridin-4-yl][1,2,4]triazolo[1,5-c]pyrimidine], the inhibition in vivo at 10 mg/kg worked out at 96%. Where the note is “10 mg/kg orally”, this compound came in with a Total score of 2.

Turning to `Nc1nc(-c2ccccn2)cc2nc(-c3ccco3)nn12` [Compound 52, 5-Amino-2-(2-furyl)-7-(2-pyridyl)[1,2,4]triazolo[1,5-c]-pyrimidine], under setting [1], the inhibition in vivo at 10 mg/kg worked out at 84%. The Total score (10 mg/kg orally) came out at 8.
